Results taken from patent US20240423982A1 (Eli Lilly and Company, priority 2023, published 2024).

Tested on: new-onset type-1 diabetes patients
Assay: randomized placebo-controlled study of baricitinib 4 mg per day for 48 weeks in new-onset type 1 diabetes
Assay type: in vivo, human
Experimental: Participants: Eligibility criteria included age between 10 and 30 years, diagnosis of type 1 diabetes according to ADA criteria within 100 days of starting study drug, presence of at least one islet autoantibody and either random C-peptide>0.3 pmol/mL or C-peptide>0.2 pmol/mL per during a 2 h MMTT. Exclusion criteria included treatment with other immunomodulatory agents, and clinically significant comorbidities including cytopenias, known malignancy, history of thrombosis or LDL cholesterol>155 mg/dL. All participants received standard diabetes management with a target HbA1c of less than 7% in adults and less than 7.5% in participants less than 18 years of age, in accordance with current ADA recommendations.
Primary, secondary, and exploratory outcomes: The primary outcome was the average C-peptide during a 2 h MMTT at 48 weeks, calculated as the area under the trapezoidal curve divided by 120 minutes. Secondary outcomes included HbA1c, total daily insulin use, CGM measures from the ambulatory glucose profile. Participants were requested to wear either a Freestyle Libre2 or Dexcom G6 CGM for 14 days at baseline, 12, 24, 48, 72 and 96 weeks. Exploratory mechanistic outcomes included the assessment of basal and cytokine-stimulated phosphorylation of STAT proteins in fresh whole blood, and the frequency of T-cell subsets in PBMC. Samples for these were collected at baseline and 24 weeks.

[1] = weeks 12 and 24, but not week 48, versus placebo

lipid profile, liver function or renal function versus placebo (baseline, 12, 24, or 48 weeks): no significant differences
time below range <70 mg/dl (<3.9 mmol/L) (CGM) (between groups): no significant differences
SMILES: CCS(=O)(=O)N1CC(CC#N)(n2cc(-c3ncnc4[nH]ccc34)cn2)C1 [baricitinib, {1-(ethylsulfonyl)-3-[4-(7H-pyrrolo[2,3-d]pyrimidin-4-yl)-1H-pyrazol-1-yl]azetidin-3-yl}acetonitrile]
tolerability (4 mg per day orally, 48 weeks): well tolerated
glucose coefficient of variation (CGM) (12, 24 and 48 weeks, versus placebo): improved significantly
HbA1c (48 weeks, mean±SEM, placebo 7.4±0.27, p=0.216): 7.0%
insulin use compared to placebo (FIG. 1B, over treatment): significantly lower insulin use
median number of AEs (placebo 3): 2
SAEs attributed to study medication (total of seven SAEs recorded in both groups): none of which were attributed to study medication
median C-peptide during 2 h MMTT (week 48, 4 mg per day orally, placebo 0.45 (0.13-0.63), p=0.001): 0.65 (0.31-0.82) pmol/mL/min
daily insulin dose (week 48, median, placebo 0.48 (0.37-0.64), p=0.004): 0.39 (0.22-0.57) U/kg/day
C-peptide decline compared to baseline (week 48, placebo 29.5%, p=0.008): 5.5%
HbA1c difference between groups (weeks 12, 24 or 48): did not differ significantly
daily insulin requirement versus baseline (weeks 12 and 24): decreased below baseline
median C-peptide compared to placebo (weeks 12 and 24): significantly higher
percent time above 180 mg/dl (10 mmol/l) (CGM) [1]: significantly lower
percent time between 70 and 180 mg/dL (3.9 and 10 mmol/L) (CGM) [1]: higher
